Results from paper PMC6238273, “First in vivo evaluation of a potential SPECT brain radiotracer for the gonadotropin releasing hormone receptor” (BMC Research Notes, 2018).
Entries after “also recorded” stand apart in the source; their conditions may differ. Each block holds one compound with its values, some of them ahead of it.

What was measured:
[1] = target: T1, hGnRHR (Homo sapiens, UniProt P30968); assay: Competitive binding for LHRH/GnRH by fluorescence based FLIPR-assay in HEK293T cells stably expressing GnRH receptors; assay type: cell-based; settings: for Ki: 5 nM LHRH agonist, Ki by cheng-prusoff equation; for IC50: competition with 5 nM LHRH agonist, read-out: hGnRHR pIC50 (converted)
T1 construct: host or cells: HEK293T
T1 sequence (P30968 1-328): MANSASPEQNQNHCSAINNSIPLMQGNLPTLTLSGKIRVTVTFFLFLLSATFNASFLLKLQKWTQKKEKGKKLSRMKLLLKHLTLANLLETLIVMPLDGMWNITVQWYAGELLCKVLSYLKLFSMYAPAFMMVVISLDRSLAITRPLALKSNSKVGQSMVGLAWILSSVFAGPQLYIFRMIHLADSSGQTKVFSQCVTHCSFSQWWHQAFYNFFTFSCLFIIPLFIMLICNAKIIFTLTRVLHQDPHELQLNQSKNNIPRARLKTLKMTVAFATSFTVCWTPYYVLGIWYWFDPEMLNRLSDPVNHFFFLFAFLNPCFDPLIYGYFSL
Experimental: HEK293T (division arrested cell-line, Multispan Inc. USA) cells stably expressing GnRH receptors were used to measure the competitive binding for LHRH/GnRH by a fluorescence based FLIPR-assay. Compound-1 was tested in concentrations from 50 µM to 0.5 nM with 5 nM LHRH agonist as competitor.
The Ki was determined by using the cheng-prusoff equation [13].

[2] = Stability in saline (0.9% NaCl) by LC-MS; assay type: physicochemical; settings: ambient temperature, n = 1
Experimental: The stability of Compound-1 was initially investigated in saline. Compound-1 was dissolved in ethanol:Polysorbate 80:water (5:5:90) then incubated with 300 µl 0.9% NaCl at ambient temperature to give a final concentration of 6.5 mM (millimolar). […] Furthermore, Compound-1 was investigated in human and rat serum. Compound-1 in ethanol:Polysorbate 80:water (5:5:90) was incubated with 400 µl human and 300 µl rat serum at 37 °C to give a final concentration of 5 mM and 6.5 mM. Aliquots (40–50 µl) from previous mixtures was extracted with ice-cold acetonitrile at 0, 10, 30, 60, 120, 240 and 1320 min post-incubation. Samples were centrifuged at 13,000g for 5 min. The supernatants were analysed by LC–MS. Serum experiments were performed in triplicate. Additionally, [^123I]-Compound-1 was evaluated for in vivo stability by analyzing blood samples after 1 h post injection. The blood samples were centrifuged and the supernatant was injected on the radio-HPLC.

[3] = Stability in human serum by LC-MS; assay type: in vitro ADME; settings: for % of compound remaining, human serum: 37 °C
Experimental: (§1) The stability of Compound-1 was initially investigated in saline. Compound-1 was dissolved in ethanol:Polysorbate 80:water (5:5:90) then incubated with 300 µl 0.9% NaCl at ambient temperature to give a final concentration of 6.5 mM (millimolar). Aliquots were taken at 0, 60, 120 and 1560 min, then analysed by LC–MS. Furthermore, Compound-1 was investigated in human and rat serum. Compound-1 in ethanol:Polysorbate 80:water (5:5:90) was incubated with 400 µl human and 300 µl rat serum at 37 °C to give a final concentration of 5 mM and 6.5 mM. Aliquots (40–50 µl) from previous mixtures was extracted with ice-cold acetonitrile at 0, 10, 30, 60, 120, 240 and 1320 min post-incubation. Samples were centrifuged at 13,000g for 5 min. The supernatants were analysed by LC–MS. Serum experiments were performed in triplicate. Additionally, [^123I]-Compound-1 was evaluated for in vivo stability by analyzing blood samples after 1 h post injection. The blood samples were centrifuged and the supernatant was injected on the radio-HPLC.

[4] = Rat brain SPECT imaging; assay type: in vivo
Experimental: Compound-1 SPECT brain imaging and biodistribution were examined post injection in rats. All animal procedures were performed under isoflurane anesthesia (Induction 4%, Maintenance 2% in oxygen). One group of rats was injected intravenous (iv.) with [^123I]-Compound-1 (1.67 MBq ± 0.28, n = 3). A second group was injected intraperitoneal (ip.) (4.12 MBq ± 0.56, n = 3). A third group of animals was injected iv. with Na^123I (1.53 MBq ± 0.37 SD, n = 3). Biodistribution of these compounds was studied after the SPECT imaging sessions 1 h post-injection (in the iv. groups) and 2 and 5 h post-administration in the ip. group. Rats were positioned with the brain in the center of the field of view inside a 4 detector configuration Triumph™ II X-SPECT^Ⓡ small animal PET/SPECT/CT scanner (Trifoil Imaging, Northridge Tri-Modality Imaging, Inc., Chatsworth, CA). Heart rate and breathing was monitored with sensors inside a closed animal cell (Equipment Veterinaire Minerve, Esternay) and the temperature on the heated air flow inside the cell was set to 35 °C to prevent hypothermia. […] Images were analyzed using PMOD (PMOD Technologies Ltd., Zürich). […] In addition, an average SPECT image over all time frames was calculated for each animal.

[5] = Stability in rat serum by LC-MS; assay type: in vitro ADME; settings: for % of compound remaining, rat serum: 37 °C
Experimental: as §1

[6] = Biodistribution in rats (gamma counter, % ID/g); assay type: in vivo; settings: rat
Experimental: Compound-1 SPECT brain imaging and biodistribution were examined post injection in rats. All animal procedures were performed under isoflurane anesthesia (Induction 4%, Maintenance 2% in oxygen). One group of rats was injected intravenous (iv.) with [^123I]-Compound-1 (1.67 MBq ± 0.28, n = 3). A second group was injected intraperitoneal (ip.) (4.12 MBq ± 0.56, n = 3). A third group of animals was injected iv. with Na^123I (1.53 MBq ± 0.37 SD, n = 3). Biodistribution of these compounds was studied after the SPECT imaging sessions 1 h post-injection (in the iv. groups) and 2 and 5 h post-administration in the ip. group. Rats were positioned with the brain in the center of the field of view inside a 4 detector configuration Triumph™ II X-SPECT^Ⓡ small animal PET/SPECT/CT scanner (Trifoil Imaging, Northridge Tri-Modality Imaging, Inc., Chatsworth, CA). Heart rate and breathing was monitored with sensors inside a closed animal cell (Equipment Veterinaire Minerve, Esternay) and the temperature on the heated air flow inside the cell was set to 35 °C to prevent hypothermia. Dynamic SPECT acquisitions for 30 and 60 min with 6–12 image frames (5 min duration) were obtained for the animals which were used for 1–2 h biodistribution studies respectively. The animals subjected to the 5 h biodistribution study were scanned after an average of 4 h and 20 min, a static SPECT of 30 min was acquired. 1.0 mm 5-multipinhole collimator (N5F65A10) and 50 mm radius of rotation (ROR). Images were reconstructed using a 20% energy window and Ordered Subset Expectation Maximization (OSEM) algorithm with 5 iterations and 8 subsets. Computed tomography (CT) was performed using 80 kVp, 2 × 2 binning, 512 projections and 1.3× magnification, immediately after SPECT imaging. The raw data were reconstructed using Filtered Back Projection. Images were analyzed using PMOD (PMOD Technologies Ltd., Zürich). Volumes of interests (VOI) representing the brain-tissue, non-brain-tissue and background regions were delineated based on the anatomical CT images, and transferred to the co-registered dynamic SPECT data. In addition, an average SPECT image over all time frames was calculated for each animal.
Animals were euthanized with an overdose of pentobarbital (ip. […]) and organs were collected, weighed and analysed for radioactivity measurements on an automatic gamma counter (Wizard^2 2480, Perkin Elmer, USA). Organ distribution was expressed as percentage of injected dose per gram for the organs selected (% ID/g).

[7] = In vivo stability: radio-HPLC of blood samples 1 h post injection; settings: rat blood samples 1 h post injection
Experimental: as §1

[8] = 120 min, mean ± SD n = 3, listed as compound 1

Ki [1]: 82 nM
IC50 [1]: 5130 nM
% of compound remaining, saline ([2]; 0 min, 6.5 mM): 100%
% of compound remaining, saline ([2]; 60 min): 46%
% of compound remaining, saline ([2]; 120 min): 10%
% of compound remaining, saline ([2]; 1440 min (24 h)): 2%
% of compound remaining, saline ([2]; 1440 min (24 h), listed as compound 1): 1.6%
% of compound remaining, human serum ([3]; 0 min, 5 mM): 100%
% of compound remaining, human serum ([3]; 10 min, mean ± SD n = 3): 88±1.6%
% of compound remaining, human serum ([3]; 30 min, mean ± SD n = 3): 74±8.1%
% of compound remaining, human serum ([3]; 60 min, mean ± SD n = 3): 52±1.5%
% of compound remaining, human serum ([3]; 120 min, mean ± SD n = 3): 23%
% of compound remaining, human serum [3, 8]: 23±1.6%
% of compound remaining, human serum ([3]; 240 min, mean ± SD n = 3): 3±0.3%
% of compound remaining, human serum ([3]; 1320 min): 0%
decrease of compound in human serum ([3]; after 1 h, LC-MS): 50%
% of compound remaining, rat serum ([5]; 0 min, 6.5 mM): 100%
% of compound remaining, rat serum ([5]; 10 min, mean ± SD n = 3): 86±7.3%
% of compound remaining, rat serum ([5]; 30 min, mean ± SD n = 3): 82±11.5%
% of compound remaining, rat serum ([5]; 60 min, mean ± SD n = 3): 44±5.5%
% of compound remaining, rat serum ([5]; 120 min, mean ± SD n = 3): approximately 30%
% of compound remaining, rat serum [5, 8]: 30±4.8%
% of compound remaining, rat serum ([5]; 240 min, mean ± SD n = 3): 8±1.6%
% of compound remaining, rat serum ([5]; 1320 min): 0%
decrease of compound in rat serum ([5]; after 1 h, LC-MS): 50%
Compound: CC(C)(C)c1ccc(-c2nc3c(N4CCN(C(=O)CI)CC4)cccc3[nH]2)cc1 [Compound-1]
brain uptake in SPECT images ([4]; iv. or ip. injection): no uptake; also recorded: did not show any uptake

Ki [1]: 12.2 nM
IC50 [1]: 631 nM
Compound: CC(C)(C)c1ccc(-c2nc3c(N4CCN(Cc5ccc6nccnc6c5)CC4)cccc3[nH]2)cc1 [WAY207024, 6-({4-[2-(4-tert-butylphenyl)-1H-benzimidazol-4-yl]piperazin-1-yl}methyl)quinoxaline, reference compound]

organ distribution, brain ([6]; 1 h post iv. injection): 0.03 % ID/g
organ distribution, stomach ([6]; 1 h post iv. injection): 3.6 % ID/g
organ distribution, testis ([6]; 1 h post iv. injection): 0.2 % ID/g
organ distribution, thyroid ([6]; 1 h post iv. injection): 1.2 % ID/g
organ distribution, stomach ([6]; 2 h post ip. administration): 2.5 % ID/g
organ distribution, thyroid ([6]; 2 h post ip. administration): 5.8 % ID/g
organ distribution, stomach ([6]; 5 h post ip. administration): 2 % ID/g
organ distribution, thyroid ([6]; 5 h post ip. administration): 13.1 % ID/g
SPECT VOI comparison (brain, non-brain region, background region) ([4]; semi-quantitative SPECT analysis): no significant differences
detection of intact radiotracer in blood by radio-HPLC [7]: did not detect
Compound: CC(C)(C)c1ccc(-c2nc3c(N4CCN(C(=O)C[123I])CC4)cccc3[nH]2)cc1 [[^123I]-Compound-1]
